Data: US8828987B2, “Pyridine amide derivatives as EP4 receptor antagonists” (Rottapharm Biotech S.R.L., priority 2010, dated 2014)

Key:
human EP4 receptor [1] = target: T1, human EP4 receptor (Homo sapiens, UniProt P35408); experiment: cAMP assay (AlphaScreen) on human EP4 membrane of transfected cells, antagonism of PGE2; format: biochemical; details: HEK293 hEP4 cell membrane stimulated with PGE2 3 nM; read-out: functional IC50
T1 construct: expressed in transfected cells; membrane fraction used
T1 sequence (P35408 whole entry): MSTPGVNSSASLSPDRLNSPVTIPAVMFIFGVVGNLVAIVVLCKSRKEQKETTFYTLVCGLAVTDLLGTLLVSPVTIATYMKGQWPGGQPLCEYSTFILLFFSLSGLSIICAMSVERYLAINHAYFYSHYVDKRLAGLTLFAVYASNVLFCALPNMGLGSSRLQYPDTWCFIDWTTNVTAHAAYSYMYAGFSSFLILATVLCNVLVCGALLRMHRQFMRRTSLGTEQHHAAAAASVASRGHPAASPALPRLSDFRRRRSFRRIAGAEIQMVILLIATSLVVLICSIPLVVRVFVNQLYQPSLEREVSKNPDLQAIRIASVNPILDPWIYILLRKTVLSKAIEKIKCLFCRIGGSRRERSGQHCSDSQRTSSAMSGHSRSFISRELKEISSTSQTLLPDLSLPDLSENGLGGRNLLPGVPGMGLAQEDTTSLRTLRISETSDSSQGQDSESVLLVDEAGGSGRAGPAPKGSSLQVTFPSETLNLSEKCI
Text: (§1) Stable Expression of Human EP4 Receptors in the Human Embryonic Kidney (HEK293) Cell Line
(§2) The cDNA clone of human EP4 receptor (NM_000958.2) was obtained from Invitrogen™: Ultimate™ ORF Clone Collection—Clone ID IOH46525. The coding sequence was subcloned in expression vector pcDNA™6.2/V5-DEST by Gateway technology (Invitrogen™).
(§3) Human embryonic kidney cells (HEK-293) were stably transfected with expression vector for human EP4 receptor in according to the method described in FuGENE®6 Transfection Reagent's manual (Roche Applied Science®).
(§4) Preparation of Membrane Fraction:
(§5) The EP4 transfected cells were grown in Dulbecco's modified Eagle's medium containing 10% fetal bovine serum and 10 μg/ml Blasticidin S HCl (selection medium) at 37° C. in a humidified atmosphere of 5% CO2 in air.
(§6) For the membrane preparation, cells in flask were harvested by hypotonical/mechanical lysis with chilled (4° C.) TE buffer (5 mM TRIS, 5 mM etylenediamine tetra-acetic acid (EDTA), pH 7.4).
(§7) Cells were detached and lysed with 10 ml of hypotonic lysis buffer and by scraping. The cell lysate was vortexed for 30 sec and centrifuged at 40000×g at 4° C. for 22 min.
b) cAMP Assay on Human EP4 Membrane of Transfected Cells.
The assay is based on the competition between endogenous cAMP and exogenously added biotinylated cAMP. The capture of cAMP is achieved by using a specific antibody conjugated to […] beads.
Cell membranes prepared as described above, were resuspended in 1 ml stimulation buffer (HBSS 1×+BSA 0.1%+IBMX 0.5 mM+HEPES 5 mM+MgCl2 10 mM+GTP 1 nM+GDP 10 μM+ATP 100 μM−pH 7.4). Cell membranes were dispensed into white 384-well microplates at final concentration of 1 μg/well and used for the determination of cAMP with the alphascreen cAMP functional assay (EnVision—PerkinElmer). Cell membrane/anti-cAMP Acceptor beads mix (5 μl) and a mixture of analysed compounds (dissolved in 100% DMSO to a final maximal concentration of 0.01% DMSO)/PGE2 (5 μl) were incubated at room temperature (22-23° C.) for 30 min in the dark. The Biotinylated-cAMP and donor beads (15 μl) were dispensed into each well to start the competition reaction. After 1 h incubation RT (22-23° C.) in the dark the plate was read using EnVision platform to determine the cAMP level (excitation: 680 nm; emission: 520,620 nm).
cAMP standard curve (concentration range from 1×10-6 to 1×10-11 M in. log intervals) with a negative control (no cAMP) a positive control:forskolin 10 μM
Antagonism studies were performed stimulating HEK293 cell membrane with PGE2 3 nM. The AlphaScreen signal is plotted as a function of log concentration of cAMP and functional IC50 is determined. IC50 value is calculated by linear regression.
Some compounds were tested according to method of example 83b.

human EP4 receptor [2] = target: T1, human EP4 receptor; experiment: [3H]-Prostaglandin E2 membrane binding assay (human EP4/HEK293 transfectant membranes); details: [3H]-PGE2 1 nM, hEP4/HEK293 membranes; Ki by Cheng-Prusoff; read-out: Binding pKi (converted)
Text: as §1, §2, §3, §4, §5, §6, §7
a) Membrane Binding Assay[3H]-Prostaglandin E2
The membrane pellet was resuspended in the same buffer (5 mM TRIS, 5 mM ethylenediamine tetra-acetic acid (EDTA), pH 7.4), and protein concentration was determined by Bradford method (Bio-Bad® assay).
This membrane preparation was stored at −80° C. freezer until use for binding assay.
([^3H]-PGE2) membranes binding assays toward hEP4 receptors (human EP4/HEK293 transfectant, see above) and hEP2 receptors (human EP2/HEK293 transfectant, purchased from PerkinElmer Inc) were performed in 10 mM MES-KOH buffer pH6, containing 10 mM MgCl2 and 1 mM CaCl2 for EP4 binding assay or 50 mM Tris-Cl, BSA 0.5% for EP2 binding assay (according to supplier indication).
Ten microgram of protein from membrane fractions were incubated in a total volume of 0.1 ml (EP4) or 0.2 ml (EP2) with 1 nM (EP4) or 3 nM (EP2) [^3H]-PGE2 (PerkinElmer Inc, 171 Ci/mmol). In both assays to determine the total binding or non specific binding, 1% DMSO or 1 μM prostaglandin E2 (EP4) or 100 μM (EP2) were added to reaction mixtures, respectively. Incubation was conducted in a polypropylene 96 multiwell for 90 min (EP4) or 60 min (EP2) at room temperature prior to separation of the bound and free radioligand by vacuum manifold rapid filtration on glass fiber filters (Unifilter GFB96, PerkinElmer Inc) pre-soaked in 0.3% polyethyleneimine. Filters were washed with ice cold buffer pH 7.4 (50 mM HEPES, NaCl 500 mM, BSA 0.1% for EP4 binding assay or 50 mM Tris-Cl for EP2 binding assays) and the residual [^3H]-PGE2 binding determined by solid scintillation counter (TopCount, PerkinElmer Inc).
The affinity (Ki) of each compound was calculated according to the Cheng-Prousoff equation: Ki=IC50/(1+([C]/Kd)). Results were expressed as pKi (−log 10 Ki (M)
Compounds of example 1 to 82 were tested according to method of example 83a in a final concentration range from 1 nM to 1 μM.

| IC50 (human EP4 receptor [1]) [µM] | Ki (human EP4 receptor [2]) [µM] | SMILES |
| --- | --- | --- |
| 0.187 | 0.0251 | O=C(O)c1ccc(C2(NC(=O)c3cc(Cl)cnc3N3CC(Oc4ccc(C(F)(F)F)cc4)C3)CC2)cc1 [E 13, 4-(1-(5-chloro-2-(3-(4-(trifluoromethyl)phenoxy)azetidin-1-yl)nicotinamido)cyclopropyl)benzoic acid] |
| 0.09 | 0.01 | O=C(O)c1ccc(C2(NC(=O)c3cc(Cl)cnc3N3CCC[C@@H]3COc3cccc(F)c3)CC2)cc1 [E 77, 4 (R)-4-(1-(5-chloro-2-(2-((3-fluorophenoxy)methyl)pyrrolidin-1-yl)nicotinamido)cyclopropyl)benzoic acid] |
| 0.066 | 0.0316 | O=C(O)c1ccc(C2(NC(=O)c3cc(Cl)cnc3N3CCC(Oc4ccc(F)cc4)C3)CC2)cc1 (single isomer, unassigned) [E 68, 4-(1-(5-chloro-2-(3-(4-fluorophenoxy)pyrrolidin-1-yl)nicotinamido)cyclopropyl)benzoic acid] |
| 0.059 | 0.00631 | O=C(O)c1ccc(C2(NC(=O)c3cc(Cl)cnc3N3CC(Nc4ccc(F)cc4F)C3)CC2)cc1 [E 35, 4-(1-(5-chloro-2-(3-((2,4-difluorophenyl)amino)azetidin-1-yl)nicotinamido)cyclopropyl)benzoic acid] |
| 0.074 | 0.02 | O=C(O)c1ccc(C2(NC(=O)c3cc(C(F)(F)F)cnc3N3CC(Nc4ccc(F)cc4F)C3)CC2)cc1 [E 52, 4-(1-(2-(3-((2,4-difluorophenyl)amino)azetidin-1-yl)-5-(trifluoromethyl)nicotinamido)cyclopropyl)benzoic acid] |
| 0.031 | 0.0126 | Cc1cc(F)ccc1N(C)C1CN(c2ncc(Cl)cc2C(=O)NC2(c3ccc(C(=O)O)cc3)CC2)C1 [E 37, 4-(1-(5-chloro-2-(3-((4-fluoro-2-methylphenyl)(methyl)amino)azetidin-1-yl)nicotinamido)cyclopropyl)benzoic acid] |
| 0.386 | 0.1 | C[C@H](NC(=O)c1cc(Cl)cnc1N1CC(Oc2ccc(F)cc2)C1)c1ccc(C(=O)O)cc1 [E 11, (S)-4-(1-(5-chloro-2-(3-(4-fluorophenoxy)azetidin-1-yl)nicotinamido)ethyl)benzoic acid] |
| 0.197 | 0.0794 | O=C(O)c1ccc(C2(NC(=O)c3cc(Cl)cnc3N3CC(O)(c4ccc(F)cc4)C3)CC2)cc1 [E 28, 4-(1-(5-chloro-2-(3-(4-fluorophenyl)-3-hydroxyazetidin-1-yl)nicotinamido)cyclopropyl)benzoic acid] |
| 0.07 | 0.01 | O=C(O)c1ccc(C2(NC(=O)c3cc(Cl)cnc3N3CC(Oc4ccc(F)c(F)c4)C3)CC2)cc1 [E 20, 4-(1-(5-chloro-2-(3-(3,4-difluorophenoxy)azetidin-1-yl)nicotinamido)cyclopropyl)benzoic acid] |
| 0.087 | 0.0501 | O=C(O)c1ccc(C2(NC(=O)c3cc(Cl)cnc3N3CC(Oc4ccc(F)cc4F)C3)CC2)cc1 [E 19, 4-(1-(5-chloro-2-(3-(2,4-difluorophenoxy)azetidin-1-yl)nicotinamido)cyclopropyl)benzoic acid] |
| 0.11 | 0.0398 | O=C(O)c1ccc(C2(NC(=O)c3cc(Cl)cnc3N3CCC(Oc4cccc(F)c4)C3)CC2)cc1 (single isomer, unassigned) [E 71, 4-(1-(5-chloro-2-(3-(3-fluorophenoxy)pyrrolidin-1-yl)nicotinamido)cyclopropyl)benzoic acid] |
| 0.0077 | 0.00501 | O=C(O)c1ccc(C2(NC(=O)c3cc(C(F)(F)F)cnc3N3CC(Oc4cccc(Cl)c4)C3)CC2)cc1 [E 41, 4-(1-(2-(3-(3-chlorophenoxy)azetidin-1-yl)-5-(trifluoromethyl)nicotinamido)cyclopropyl)benzoic acid] |
| 0.08 | 0.0316 | O=C(O)c1ccc(C2(NC(=O)c3cc(F)cnc3N3CC(Oc4cccc(F)c4)C3)CC2)cc1 [E 53, 4-(1-(5-fluoro-2-(3-(3-fluorophenoxy)azetidin-1-yl)nicotinamido)cyclopropyl)benzoic acid] |
| 0.0445 | 0.00631 | O=C(O)c1ccc(C2(NC(=O)c3cc(Cl)cnc3N3CC(Nc4ccc(F)cc4)C3)CC2)cc1 [E 33, 4-(1-(5-chloro-2-(3-((4-fluorophenyl)amino)azetidin-1-yl)nicotinamido)cyclopropyl)benzoic acid] |
| 0.133 | 0.0316 | O=C(O)c1ccc(C2(NC(=O)c3cc(Cl)cnc3N3CCCC3c3ccccc3)CC2)cc1 (single isomer, unassigned) [E 3, 4-(1-(5-chloro-2-(2-phenylpyrrolidin-1-yl)nicotinamido)cyclopropyl)benzoic acid] |
| 0.076 | 0.0251 | O=C(O)c1ccc(C2(NC(=O)c3cc(Cl)cnc3N3CC(Nc4cccc(F)c4)C3)CC2)cc1 [E 32, 4-(1-(5-chloro-2-(3-((3-fluorophenyl)amino)azetidin-1-yl)nicotinamido)cyclopropyl)benzoic acid] |
| 0.043 | 0.0398 | O=C(O)c1ccc(C2(NC(=O)c3cc(Cl)cnc3N3CCC(Oc4ccc(F)cc4)C3)CC2)cc1 (single isomer, unassigned) [E 66, 4-(1-(5-chloro-2-(3-(4-fluorophenoxy)pyrrolidin-1-yl)nicotinamido)cyclopropyl)benzoic acid] |
| 0.01 | 0.00501 | O=C(O)c1ccc(C2(NC(=O)c3cc(C(F)(F)F)cnc3N3CC(Oc4ccc(Cl)cc4)C3)CC2)cc1 [E 40, 4-(1-(2-(3-(4-chlorophenoxy)azetidin-1-yl)-5-(trifluoromethyl)nicotinamido)cyclopropyl)benzoic acid] |
| 0.03 | 0.00398 | Cc1cc(C(F)(F)F)ccc1NC1CN(c2ncc(Cl)cc2C(=O)NC2(c3ccc(C(=O)O)cc3)CC2)C1 [E 36, 4-(1-(5-chloro-2-(3-((2-methyl-4-(trifluoromethyl)phenyl)amino)azetidin-1-yl)nicotinamido)cyclopropyl)benzoic acid] |
| 0.308 | 0.0501 | O=C(O)c1ccc(C2(NC(=O)c3cc(Cl)cnc3N3CCC(Oc4cccc(F)c4)C3)CC2)cc1 (single isomer, unassigned) [E 69, 4-(1-(5-chloro-2-(3-(3-fluorophenoxy)pyrrolidin-1-yl)nicotinamido)cyclopropyl)benzoic acid] |
| 0.038 | 0.00316 | O=C(O)c1ccc(C2(NC(=O)c3cc(C(F)(F)F)cnc3N3CC(Oc4cccc(OC(F)(F)F)c4)C3)CC2)cc1 [E 43, 4-(1-(2-(3-(3-(trifluoromethoxy)phenoxy)azetidin-1-yl)-5-(trifluoromethyl)nicotinamido)cyclopropyl)benzoic acid] |
